Results published in patent publication US12517130B2, “Isoindoline derivatives which bind to an ATP binding site” (NeoPhore Limited, priority 2020, dated 2026).
Counter-ions that a name gives are not always drawn.

Tests used:
[1] = biological target: T1, MLH1 (Homo sapiens, UniProt P40692); assay: Fluorescence polarisation assay of commercially available ATP-derived fluorescent probes, according to the type of protocol exemplified; assay type: binding; settings: substance used as the fluorescent probe
T1 sequence (P40692 15-340 limits assumed): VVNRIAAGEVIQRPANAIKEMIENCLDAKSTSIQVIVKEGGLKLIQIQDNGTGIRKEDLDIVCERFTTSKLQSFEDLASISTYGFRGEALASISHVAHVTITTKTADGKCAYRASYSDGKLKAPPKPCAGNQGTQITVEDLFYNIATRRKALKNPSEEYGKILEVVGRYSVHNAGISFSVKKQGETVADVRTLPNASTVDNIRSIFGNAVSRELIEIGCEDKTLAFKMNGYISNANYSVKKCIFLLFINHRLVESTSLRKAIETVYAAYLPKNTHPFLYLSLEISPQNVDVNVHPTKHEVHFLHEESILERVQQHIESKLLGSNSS
Description: (§1) These probes are therefore unsuitable for use as fluorescence polarisation screening tools.
An 11 point 1 in 2 serial dilution of protein (either recombinant N-terminal PMS2 (residues 1-365) or recombinant N-terminal MLH1 (residues 15-340)) in assay buffer (25 mM HEPES, pH 7.5, 250 mM NaCl, 10 mM MgCl2, 0.01% Triton X-100, 5 mM Dithiothreitol) was constructed in a clear polypropylene plate (Greiner Bio-One, item number 784201). The top concentration of the serial dilution was 2 μM. The 12th concentration point was buffer only (no protein control).
The serial dilution was used as the 2× protein and 20 μL was added to a Black Fluotrac 200 384-well medium binding plate (Greiner Bio-One, item number 781076). Plates were centrifuged for 1 minute at 250×g and were incubated at room temperature for 30 minutes prior to the addition of 20 μL of 2× (either 5 nM or 2 nM) of probe in assay buffer (prepared from a 100 μM DMSO stock) with a MultiDrop Combi (ThermoFisher).
Compound plates were centrifuged for 1 minute at 250×g for 1 minute and were incubated at room temperature for 1 hour before being read on a PheraStar FSX (fitted with 384-well aperture spoon and appropriate FP module). The gain and focus were adjusted before each plate was read so that the polarisation of the no protein control was equal to 35 mP. Data was plotted and analysed in GraphPad Prism 8.1.0 (FIGS. 6-9).

[2] = biological target: T2, N-terminal domain of MLH1 (Homo sapiens, UniProt P40692); assay: Surface plasmon resonance binding to N-terminal domain of MLH1
T2 construct: by surface plasmon resonance to the N-terminal domain of MLH1
T2 sequence (P40692 15-340 limits assumed): T1 sequence (P40692 15-340 limits assumed)
Text: as §1

[3] = biological target: T3, recombinant N-terminal MLH1 (residues 15-340) (Homo sapiens, UniProt P40692); assay: Assay A: Fluorescence Polarisation Assay for MLH1 (displacement of Example 1 probe); assay type: binding; settings: Assay Protocol A; 100 nM N-terminal MLH1, 5 nM Example 1 probe; FIG. 10
T3 construct: recombinant N-terminal MLH1 (residues 15-340) in assay buffer
T3 sequence (P40692 15-340): T1 sequence (P40692 15-340 limits assumed)
Description: Assay A: Fluorescence Polarisation Assay for MLH1
Test compounds, as 10 mM DMSO stocks, were dispensed into a Black Fluotrac 200 384-well medium binding plate (Greiner Bio-One, item number 781076) using a Labcyte Echo acoustic liquid handler. Test compounds were added to wells in columns 1-22 whilst DMSO was added to wells in columns 23 and 24 in order to normalise the plate. 20 μL of a 2× solution (200 nM) of recombinant N-terminal MLH1 (residues 15-340) in assay buffer (25 mM HEPES, pH 7.5, 250 mM NaCl, 10 mM MgCl2, 0.01% Triton X-100, 5 mM Dithiothreitol) was added to all wells in columns 1-23 and 20 μL assay buffer was added to all wells in column 24 using a MultiDrop Combi (ThermoFisher). […] Compound plates were centrifuged for 1 minute at 250×g for 1 minute and were incubated at room temperature for 1 hour before being read on a PheraStar FSX (fitted with 384-well aperture spoon and 590 675 675 FP optic module). The gain and focus were adjusted before each plate was read so that the polarisation of a no enzyme control (column 24) was equal to 35 mP. […]

[4] = biological target: T4, recombinant N-terminal PMS2 (residues 1-365) (Homo sapiens, UniProt P54278); assay: Assay C: Fluorescence Polarisation Assay for PMS2 (displacement of Example 5 probe); assay type: binding; settings: Assay Protocol C; 10 nM N-terminal PMS2, 5 nM Example 5 probe; FIG. 11
T4 construct: recombinant N-terminal PMS2 (residues 1-365) in assay buffer
T4 sequence (P54278 1-365): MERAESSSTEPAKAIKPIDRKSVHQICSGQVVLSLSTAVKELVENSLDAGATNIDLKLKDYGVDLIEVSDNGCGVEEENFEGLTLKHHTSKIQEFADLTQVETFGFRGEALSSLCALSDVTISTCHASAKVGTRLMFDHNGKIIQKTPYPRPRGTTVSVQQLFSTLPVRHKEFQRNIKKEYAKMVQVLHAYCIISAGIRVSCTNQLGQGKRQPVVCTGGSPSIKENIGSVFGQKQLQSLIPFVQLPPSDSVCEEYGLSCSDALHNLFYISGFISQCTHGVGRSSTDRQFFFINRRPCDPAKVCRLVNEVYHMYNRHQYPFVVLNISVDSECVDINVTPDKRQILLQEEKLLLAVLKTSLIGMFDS
Description: Assay C: Fluorescence Polarisation Assay for PMS2
Test compounds, as 10 mM DMSO stocks, were dispensed into a Black Fluotrac 200 384 well medium binding plate (Greiner Bio-One, item number 781076) using a Labcyte Echo acoustic liquid handler. For single point screening, test compounds were added to wells in columns 1-22 whilst DMSO was added to wells in columns 23 and 24 in order to normalise the plate. For potency determination, serial dilutions of test compounds were added to wells in columns 3-22 and DMSO volume was normalised across the plate.
20 μL of a 2× solution (20 nM) of recombinant N-terminal PMS2 (residues 1-365) in assay buffer (25 mM HEPES, pH 7.5, 250 mM NaCl, 10 mM MgCl2, 0.01% Triton X-100, 5 mM Dithiothreitol) was added to all wells in columns 2-23 for potency determination or columns 1-23 for single point screening. 20 μL assay buffer was added to all wells in columns 1 and 24 (column 24 only for single point screening) using a MultiDrop Combi (ThermoFisher). […]
Compound plates were centrifuged for 1 minute at 250×g and were incubated at room temperature for 1 hour before being read on a PheraStar FSX (fitted with 384-well aperture spoon and 540 590 590 FP optic module). The gain and focus were adjusted before each plate was read so that the polarisation of a no enzyme control (column 24) was equal to 35 mP. […]

Row | signal in fluorescence polarisation assay [1] | binding by surface plasmon resonance [2] | IC50 [3] | IC50 [4] | Compound
1 | no signal | very weak binding |  |  | CC1=CC(C)=[N+]2C1=Cc1ccc(CNC(=O)CSP(=O)(O)OP(=O)(O)OP(=O)(O)OC[C@H]3O[C@@H](n4cnc5c(N)ncnc54)[C@H](O)[C@@H]3O)n1[B-]2(F)F [BODIPY-FL-ATP-gamma-S]
2 |  |  | 10.7 µM | 0.179 µM | CC(C)c1cc(C(=O)N2Cc3ccc(CN4CCNCC4)cc3C2)c(O)cc1O [compound AB, (2,4-dihydroxy-5-isopropylphenyl)(5-(piperazin-1-ylmethyl)isoindolin-2-yl)methanone hydrochloride]
